# Assay results: the supplement of paper PMC10307832
# Experiments:
# Experiment in all cases: relative viability (nuclei count vs DMSO), 5 days (fraction); higher = more cells survive
# [1] = compound: C1CNCCC1C2=CC(=NN2)C3=CC=NC=C3 + CC(=O)Nc1cccc(-n2c(=O)n(C3CC3)c(=O)c3c(Nc4ccc(I)cc4F)n(C)c(=O)c(C)c32)c1 [Trametinib] (partner 0.02 µM)
# In short: (§1)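 Relative viability is defined as nuclei in treated wells over nuclei in vehicle wells. Duplicate plates were run and medians reported. Lung cancer cell lines in 1536-well plates were dosed by pin tool one day after seeding, with one drug or with a fixed anchor-drug dose plus five library-drug doses (not always all listed) in √10 steps, and nuclei were counted after 5 days.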
# [2] = compound: C1CNCCC1C2=CC(=NN2)C3=CC=NC=C3 + Nc1nc2[nH]cc(CCc3ccc(C(=O)N[C@@H](CCC(=O)O)C(=O)O)cc3)c2c(=O)[nH]1 [Pemetrexed] (partner 0.2 µM)
# In short: as §1
# Tanzisertib + Alpelisib = compound: O[C@H]1CC[C@H](Nc2ncc3nc(Nc4c(F)cc(F)cc4F)n([C@H]4CCOC4)c3n2)CC1 [Tanzisertib] + Cc1nc(NC(=O)N2CCC[C@H]2C(N)=O)sc1-c1ccnc(C(C)(C)C(F)(F)F)c1 [Alpelisib] (partner 2 µM)
# In short: as §1
# Tanzisertib + Decitabine = compound: O[C@H]1CC[C@H](Nc2ncc3nc(Nc4c(F)cc(F)cc4F)n([C@H]4CCOC4)c3n2)CC1 [Tanzisertib] + Nc1ncn([C@H]2C[C@H](O)[C@@H](CO)O2)c(=O)n1 [Decitabine] (partner 2 µM)
# In short: as §1
Cell Line,relative viability ([1]; first compound 0.08 µM),relative viability ([1]; first compound 0.8 µM),relative viability ([1]; first compound 2.53 µM),relative viability ([1]; first compound 8 µM),relative viability ([2]; first compound 0.08 µM),relative viability ([2]; first compound 0.8 µM),relative viability ([2]; first compound 2.53 µM),relative viability ([2]; first compound 8 µM),relative viability (Tanzisertib + Alpelisib; first compound 0.08 µM),relative viability (Tanzisertib + Alpelisib; first compound 0.253 µM),relative viability (Tanzisertib + Alpelisib; first compound 0.8 µM),relative viability (Tanzisertib + Alpelisib; first compound 2.53 µM),relative viability (Tanzisertib + Alpelisib; first compound 8 µM),relative viability (Tanzisertib + Decitabine; first compound 0.08 µM),relative viability (Tanzisertib + Decitabine; first compound 0.253 µM),relative viability (Tanzisertib + Decitabine; first compound 0.8 µM),relative viability (Tanzisertib + Decitabine; first compound 2.53 µM),relative viability (Tanzisertib + Decitabine; first compound 8 µM)
NCI-H1355,0.419,0.442,0.466,0.406,1.09,1.08,1.07,1.02,0.838,0.871,0.886,0.864,0.881,0.374,0.388,0.369,0.388,0.361
EKVX,0.402,,0.366,0.445,0.423,,0.427,0.404,0.72,0.846,0.952,0.832,0.685,0.371,0.356,0.41,0.323,0.324
NCI-H441,0.425,0.469,0.555,0.461,0.264,0.251,0.247,0.243,0.925,0.69,0.674,0.713,0.635,0.237,0.239,0.261,0.238,0.257
NCI-H1975,0.342,0.249,0.356,0.394,0.313,0.307,0.303,0.29,0.676,0.715,0.719,0.653,0.585,0.406,0.41,0.295,0.373,0.39
HCC-78,0.742,,0.821,0.757,0.901,,0.925,0.885,0.322,0.304,0.309,0.372,0.34,0.683,0.675,0.666,0.704,0.622
NCI-H2085,0.623,,0.52,0.71,1.1,,0.96,0.969,0.997,0.96,0.966,0.948,1.01,,0.603,0.583,0.54,0.549
H3255,0.532,,0.689,0.736,0.578,0.629,0.638,0.623,0.739,0.718,0.665,0.629,0.471,0.799,0.598,0.647,0.482,0.448
NCI-H2087,0.216,0.226,0.181,0.291,0.722,0.679,0.635,0.666,1.27,1.22,1.24,1.11,1.32,0.35,0.268,0.276,0.244,0.33
LC-2-ad,0.887,1.02,0.93,0.932,0.261,0.291,0.273,0.281,0.902,0.888,0.939,0.876,0.815,0.774,0.788,0.777,0.806,0.722
